Results taken from PubChem BioAssay (NCI).
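Each compound was tested at five concentrations against cells in 96-well plates for 48 hours. The concentration for 50% growth inhibition is given as GI50. TGI: concentration producing complete growth inhibition.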

How the values were obtained:
Test in all cases: DTP human tumour cell line panel, 48 h
[1] = system: OVCAR-3 ovarian
[2] = system: MCF7 breast
[3] = system: EKVX NSCLC
[4] = system: U251 CNS
[5] = system: SNB-75 CNS
[6] = system: HCT-15 colon
[7] = system: SF-539 CNS
[8] = system: CAKI-1 renal
[9] = system: K-562 leukemia
[10] = system: UACC-62 melanoma

For `C[C@]12CC[C@@H]3c4cc(-c5ccc(F)cc5)c(O)cc4CC[C@H]3[C@@H]1CC[C@@H]2O`, the GI50 [1] was 4020 nM, the TGI [1] was 20.9 µM and the GI50 [2] was 5210 nM. It also gave a TGI [2] of 18.6 µM, a GI50 [3] of 6.32 µM and a TGI [3] of 20.3 µM. It also gave a GI50 [4] of 5540 nM, a TGI [4] of 17.9 µM and a GI50 [5] of 2060 nM. It also gave a TGI [5] of 8.38 µM, a GI50 [6] of 5610 nM and a TGI [6] of 18.8 µM. For the same compound, the GI50 [7] was 9420 nM, the TGI [7] was 22.9 µM and the GI50 [8] was 6.47 µM. The TGI [8] was 21.5 µM, the GI50 [9] was 3060 nM and the TGI [9] was 18.3 µM. The GI50 [10] was 12000 nM and the TGI [10] was 25.2 µM.
In the case of `COc1cc(-c2ccc(-c3ccc(C(=N)N)nc3)s2)cc(OC)c1OC`, the GI50 [1] is reported as 2600 nM, the TGI [1] is reported as 6.35 µM and the GI50 [2] is reported as 1300 nM. It also gave a TGI [2] of 3.24 µM, a GI50 [3] of 5.19 µM and a TGI [3] of 18.2 µM. It also gave a GI50 [4] of 1740 nM, a TGI [4] of 3.53 µM and a GI50 [5] of 1500 nM. For the same compound, the TGI [5] was 5.16 µM, the GI50 [6] was 2180 nM and the TGI [6] was 6.41 µM. The GI50 [7] was 1610 nM, the TGI [7] was 3.01 µM and the GI50 [8] was 1.59 µM. For the same compound, the TGI [8] was 3.19 µM, the GI50 [9] was 1390 nM and the TGI [9] was 4.46 µM. For the same compound, the GI50 [10] was 1730 nM and the TGI [10] was 3.3 µM.
`CNC(=O)c1ccc(N2C(=S)N(c3ccc(C#N)c(C(F)(F)F)c3)C(=O)C2(C)C)cc1F` was tested, and the GI50 [1] was 36500 nM, the TGI [1] was greater than 84.5 µM and the GI50 [2] was 33900 nM. For the same compound, the TGI [2] was greater than 82.3 µM, the GI50 [3] was 25 µM and the TGI [3] was greater than 80.5 µM. It also gave a GI50 [4] of 43000 nM, a TGI [4] greater than 79.7 µM and a GI50 [5] of 42200 nM. The TGI [5] was greater than 79.9 µM, the GI50 [6] was 33200 nM and the TGI [6] was greater than 89.3 µM. For the same compound, the GI50 [7] was greater than 48600 nM, the TGI [7] was greater than 87.3 µM and the GI50 [8] was 31 µM. The TGI [8] was greater than 52 µM, the GI50 [9] was 33900 nM and the TGI [9] was greater than 100 µM. For the same compound, the GI50 [10] was 26900 nM and the TGI [10] was greater than 72.4 µM.
`COc1ccc(-c2cc(-c3ccc(Cl)cc3)nc(SCCCC(=O)NO)n2)cc1` showed a GI50 [1] of 406 nM, a TGI [1] of 2.11 µM and a GI50 [2] of 1810 nM. The TGI [2] was 7.43 µM, the GI50 [3] was 1.21 µM and the TGI [3] was 8.76 µM. The GI50 [4] was 753 nM, the TGI [4] was greater than 22.5 µM and the GI50 [5] was 1220 nM. It also gave a TGI [5] of 5.61 µM, a GI50 [6] of 413 nM and a TGI [6] of 1.7 µM. For the same compound, the GI50 [7] was 1360 nM, the TGI [7] was 3.78 µM and the GI50 [8] was 0.284 µM. It also gave a TGI [8] of 1.29 µM, a GI50 [9] of 1200 nM and a TGI [9] greater than 100 µM. It also gave a GI50 [10] of 853 nM and a TGI [10] of 2.22 µM.
`COc1ccc(-c2oc(=O)ccc2-c2cc(OC)c(OC)c(OC)c2)cc1O` gave a GI50 [1] of 463 nM, a TGI [1] of 3.55 µM and a GI50 [2] of 421 nM. The TGI [2] was greater than 53.6 µM, the GI50 [3] was 6.98 µM and the TGI [3] was greater than 100 µM. It also gave a GI50 [4] of 1100 nM, a TGI [4] greater than 100 µM and a GI50 [5] of 1260 nM. For the same compound, the TGI [5] was greater than 100 µM, the GI50 [6] was 769 nM and the TGI [6] was greater than 100 µM. The GI50 [7] was 1370 nM, the TGI [7] was greater than 29.9 µM and the GI50 [8] was 3.08 µM. The TGI [8] was greater than 80.8 µM, the GI50 [9] was 439 nM and the TGI [9] was greater than 100 µM. The GI50 [10] was 1230 nM and the TGI [10] was greater than 49.9 µM.
